Experimental data from publication PMC12226733, “Evolution of iGluR ligand specificity, polyamine regulation, and ion selectivity inferred from a placozoan epsilon receptor” (Communications Biology, 2025).
Several values for one entry are separate records, joined by “and”; a condition that tells them apart may be missing. Equal values may be shown once. Read-outs that look alike come from different tables or passages of the source.

Columns and labels:
[1] = test system: GluE1αA S642R; assay type: cell-based, Trichoplax adhaerens; details: […]; for normalized conductance (G-V, Figure 5g), Avg: Na vs Na; for I-V current, Na vs Na, Avg of recordings: Figure 5b
[2] = biological target: T1, GluA2(Q) wt + γ2 (Homo sapiens, UniProt P42262); assay: outside-out patch clamp, block by intracellular spermine, HEK-293T/17 cells; assay type: biochemical; details: for Normalized conductance (Gnorm) GluA2 wild type + γ2 / Normalized current (Inorm) GluA2 wild type + γ2: single recordings and AVG;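 on Normalized conductance (Gnorm) GluA2 wild type + γ2: normalized to each receptor's own maximal conductance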
T1 construct: expressed in transfected cells; host or cells: HEK-293T/17
T1 sequence (P42262 25-883): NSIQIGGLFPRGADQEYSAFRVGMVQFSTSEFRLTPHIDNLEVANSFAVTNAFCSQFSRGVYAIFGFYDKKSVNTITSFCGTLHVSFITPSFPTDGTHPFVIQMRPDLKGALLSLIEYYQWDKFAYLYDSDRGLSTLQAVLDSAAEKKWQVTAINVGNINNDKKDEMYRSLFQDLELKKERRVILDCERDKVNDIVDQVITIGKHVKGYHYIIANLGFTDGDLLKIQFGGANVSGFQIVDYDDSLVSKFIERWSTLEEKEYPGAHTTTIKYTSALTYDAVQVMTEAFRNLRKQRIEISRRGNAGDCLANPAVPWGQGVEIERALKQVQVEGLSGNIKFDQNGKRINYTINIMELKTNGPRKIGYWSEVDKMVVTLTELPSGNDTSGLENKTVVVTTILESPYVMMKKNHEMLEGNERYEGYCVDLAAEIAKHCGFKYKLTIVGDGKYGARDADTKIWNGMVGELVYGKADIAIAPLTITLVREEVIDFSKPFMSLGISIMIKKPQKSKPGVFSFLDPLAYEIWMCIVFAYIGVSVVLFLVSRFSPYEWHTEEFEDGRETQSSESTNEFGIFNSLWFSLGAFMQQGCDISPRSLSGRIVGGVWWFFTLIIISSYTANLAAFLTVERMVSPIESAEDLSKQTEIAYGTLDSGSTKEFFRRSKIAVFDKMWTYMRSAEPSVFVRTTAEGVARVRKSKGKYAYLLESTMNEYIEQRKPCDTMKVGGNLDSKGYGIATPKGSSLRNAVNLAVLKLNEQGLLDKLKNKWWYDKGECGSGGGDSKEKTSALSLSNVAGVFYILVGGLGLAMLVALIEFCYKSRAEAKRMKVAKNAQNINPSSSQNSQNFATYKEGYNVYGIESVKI
T1 sequence (Q9Y698 whole entry partner): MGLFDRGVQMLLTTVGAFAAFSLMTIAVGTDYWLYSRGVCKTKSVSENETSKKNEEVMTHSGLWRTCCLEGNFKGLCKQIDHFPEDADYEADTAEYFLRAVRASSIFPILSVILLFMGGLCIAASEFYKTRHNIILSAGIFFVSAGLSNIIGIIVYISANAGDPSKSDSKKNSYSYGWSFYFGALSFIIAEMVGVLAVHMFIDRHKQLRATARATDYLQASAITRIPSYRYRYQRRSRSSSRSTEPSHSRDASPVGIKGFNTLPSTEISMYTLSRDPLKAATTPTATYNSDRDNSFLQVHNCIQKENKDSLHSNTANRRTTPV
Protocol: (§1) Parallel experiments were carried out in human GluA2 homotetramers bearing equivalent Q/R/N and +4 site mutations to compare the regulation of voltage-dependent polyamine block within the broader context of mammalian receptors. Experimental design remained the same, except for using 10 mM glutamate as the agonist used to evoke membrane currents (Fig. 7a, d, g, and j). […] Their properties were accordingly compared to wildtype GluA2(Q) co-expressed with TARP-γ2.
(§2) HEK-293T/17 cells (ATCC) were maintained in MEM supplemented with GlutaMAX and 10% fetal bovine serum (FBS) at 37 °C and 5% CO2. […] Transient transfections were carried out 48 h post-plating using the calcium phosphate precipitation method. After 6–8 hours, cells were washed twice with PBS and maintained in fresh medium. Cells transfected with mammalian GluA2 cDNA (plasmid vector described above) were returned to an incubator at 37 °C for 24–48 hours and cells transfected with Epsilon GluE1αA were incubated at 28 °C for 48–72 hours. In cells co-transfected with TARP-γ2, 30 μM NBQX was included in the medium to minimize AMPAR/auxiliary-induced cytotoxicity. All constructs were co-transfected with a plasmid encoding enhanced green fluorescent protein (eGFP) to identify transfected cells. Electrophysiology responses were recorded from outside-out patches excised from transfected cells. Recording pipettes were composed of borosilicate glass (3 to 6 megaohm, King Precision Glass) coated with dental wax to reduce electrical noise. All recordings were performed using Axopatch 200B amplifier (Molecular Devices, LLC). Current records were filtered at 5 or 10 kHz and sampled at 25–50 kHz. Series resistance (3 to 12 megaohms) was compensated by 95%. Recordings were performed at a range of holding potentials from −100 mV to 100 mV to study polyamine block. Data was acquired using pClamp9 software (Molecular Devices, LLC). All experiments were performed at room temperature. All chemicals were purchased from Sigma-Aldrich, unless otherwise indicated. External solution contained (in mM): 150 NaCl, 5 HEPES, 0.1 CaCl2, 0.1 MgCl, and […], pH 7.3–7.4. […] The osmotic pressure of all solutions was adjusted to 295 to 300 mOsm with sucrose. […] Stocks were thawed on the day of the experiment and used to prepared agonist-containing external solutions. Raw data for all electrophysiology experiments are provided in Supplementary Data 3. Current-voltage (I-V) relationships were fit using Origin 7 (OriginLab) using a ninth order polynomial function to estimate the reversal potential (Vrev).
(§3) Agonist-evoked membrane conductance (G) was calculated using the following equation: G=I/(V−Vrev)
(§4) Conductance-voltage (G-V) relationships were fit using Origin 7 (OriginLab) with the single permeant blocker model as done previously[46]: G=Gmax/1+[Spm]/Kd Where Gmax is the maximal conductance, [Spm] is the internal Spm concentration, and Kd is the dissociation constant.
(§5) Kd is defined as: Kd=koff+kperm/kon=sumofexitrates/bindingrate
(§6) And redefined as: Kd=g*exp(V/h)+L*exp(V/k) Where h and k are voltage dependencies of g and L, respectively, and at 0 mV: g=koff/konandL=kperm/kon

[3] = biological target: T2, GluA2(Q) wt (Homo sapiens, UniProt P42262); assay: as above; assay type: biochemical; details: for Normalized conductance (Gnorm) GluA2 wild type / Normalized current (Inorm) GluA2 wild type: single recordings and AVG
T2 construct: host or cells: HEK-293T/17
T2 sequence (P42262 25-883): as the sequence (P42262 25-883) above
Protocol: as §1, §2, §3, §4, §5, §6

Compound: [Na+] [Na]
- normalized conductance (G-V, Figure 5g), Avg ([1]; Vm 0.00): 0.18
- normalized conductance (G-V, Figure 5g), Avg ([1]; Vm 20.00): 0.18
- normalized conductance (G-V, Figure 5g), Avg ([1]; Vm 40.00): 0.22
- normalized conductance (G-V, Figure 5g), Avg ([1]; Vm 60.00): 0.29
- normalized conductance (G-V, Figure 5g), Avg ([1]; Vm 80.00): 0.33
- normalized conductance (G-V, Figure 5g), Avg ([1]; Vm -20.00): 0.24
- normalized conductance (G-V, Figure 5g), Avg ([1]; Vm -40.00): 0.36
- normalized conductance (G-V, Figure 5g), Avg ([1]; Vm -60.00): 0.62
- normalized conductance (G-V, Figure 5g), Avg ([1]; Vm -80.00): 1.00
- I-V current, Na vs Na, Avg of recordings ([1]; Vm 0.00): 0.00344
- I-V current, Na vs Na, Avg of recordings ([1]; Vm 20.00): 0.06
- I-V current, Na vs Na, Avg of recordings ([1]; Vm 40.00): 0.13
- I-V current, Na vs Na, Avg of recordings ([1]; Vm 60.00): 0.22
- I-V current, Na vs Na, Avg of recordings ([1]; Vm 80.00): 0.33
- I-V current, Na vs Na, Avg of recordings ([1]; Vm -20.00): -0.07
- I-V current, Na vs Na, Avg of recordings ([1]; Vm -40.00): -0.16
- I-V current, Na vs Na, Avg of recordings ([1]; Vm -60.00): -0.32
- I-V current, Na vs Na, Avg of recordings ([1]; Vm -80.00): -0.59

Compound: NCCCNCCCCNCCCN [spermine]
- Normalized conductance (Gnorm) GluA2 wild type + γ2 ([2]; 0 mV): 0.51 and 0.59 and 0.49 and 0.67 and 0.55 and 0.56
- Normalized conductance (Gnorm) GluA2 wild type + γ2 ([2]; 10 mV): 0.45 and 0.34 and 0.59 and 0.41
- Normalized current (Inorm) GluA2 wild type + γ2 ([2]; 10 mV): 0.0271 and 0.03 and 0.0219 and 0.0374 and 0.0215 and 0.0279
- Normalized conductance (Gnorm) GluA2 wild type + γ2 ([2]; 20 mV): 0.46 and 0.44 and 0.31 and 0.56 and 0.39 and 0.43
- Normalized current (Inorm) GluA2 wild type + γ2 ([2]; 20 mV): 0.06 and 0.0741 and 0.05 and 0.09 and 0.07
- Normalized conductance (Gnorm) GluA2 wild type + γ2 ([2]; 30 mV): 0.53 and 0.56 and 0.39 and 0.59 and 0.50 and 0.51
- Normalized current (Inorm) GluA2 wild type + γ2 ([2]; 30 mV): 0.12 and 0.15 and 0.10 and 0.13
- Normalized conductance (Gnorm) GluA2 wild type + γ2 ([2]; 40 mV): 0.62 and 0.71 and 0.51 and 0.66 and 0.63
- Normalized current (Inorm) GluA2 wild type + γ2 ([2]; 40 mV): 0.20 and 0.26 and 0.18 and 0.23 and 0.22
- Normalized conductance (Gnorm) GluA2 wild type + γ2 ([2]; 50 mV): 0.72 and 0.83 and 0.63 and 0.75 and 0.82
- Normalized current (Inorm) GluA2 wild type + γ2 ([2]; 50 mV): 0.30 and 0.38 and 0.28 and 0.34 and 0.37 and 0.33
- Normalized conductance (Gnorm) GluA2 wild type + γ2 ([2]; 60 mV): 0.78 and 0.91 and 0.73 and 0.84 and 0.90 and 0.83
- Normalized current (Inorm) GluA2 wild type + γ2 ([2]; 60 mV): 0.39 and 0.50 and 0.46 and 0.45
- Normalized conductance (Gnorm) GluA2 wild type + γ2 ([2]; 70 mV): 0.82 and 0.96 and 0.81 and 0.89 and 0.95
- Normalized current (Inorm) GluA2 wild type + γ2 ([2]; 70 mV): 0.49 and 0.62 and 0.51 and 0.57
- Normalized conductance (Gnorm) GluA2 wild type + γ2 ([2]; 80 mV): 0.83 and 1.04 and 0.88 and 0.91 and 0.99 and 0.93
- Normalized current (Inorm) GluA2 wild type + γ2 ([2]; 80 mV): 0.57 and 0.78 and 0.64 and 0.67 and 0.75 and 0.68
- Normalized conductance (Gnorm) GluA2 wild type + γ2 ([2]; 90 mV): 0.86 and 0.93 and 1.02 and 0.94
- Normalized current (Inorm) GluA2 wild type + γ2 ([2]; 90 mV): 0.68 and 0.77 and 0.73 and 0.87 and 0.76
- Normalized current (Inorm) GluA2 wild type + γ2 ([2]; 100 mV): 0.71 and 0.89 and 0.76 and 1.01 and 0.84
- Normalized conductance (Gnorm) GluA2 wild type + γ2 ([2]; -10 mV): 0.69 and 0.62 and 0.75
- Normalized current (Inorm) GluA2 wild type + γ2 ([2]; -10 mV): -0.0852
- Normalized conductance (Gnorm) GluA2 wild type + γ2 ([2]; -20 mV): 0.78 and 0.82 and 0.74 and 0.85 and 0.80
- Normalized conductance (Gnorm) GluA2 wild type + γ2 ([2]; -30 mV): 0.84 and 0.88 and 0.83 and 0.85 and 0.92 and 0.86
- Normalized conductance (Gnorm) GluA2 wild type + γ2 ([2]; -40 mV): 0.90 and 0.92 and 0.89 and 0.96 and 0.91
- Normalized conductance (Gnorm) GluA2 wild type + γ2 ([2]; -50 mV): 0.96 and 0.94 and 0.92 and 0.93 and 0.98 and 0.95
- Normalized conductance (Gnorm) GluA2 wild type + γ2 ([2]; -60 mV): 0.99 and 0.97 and 0.98
- Normalized conductance (Gnorm) GluA2 wild type + γ2 ([2]; -70 mV): 1.01 and 0.98 and 0.99 and 0.97 and 0.96
- Normalized conductance (Gnorm) GluA2 wild type + γ2 ([2]; -80 mV): 1.01 and 0.98 and 1.00 and 0.99
- Normalized conductance (Gnorm) GluA2 wild type + γ2 ([2]; -90 mV): 1.00 and 0.99 and 0.98
- Normalized conductance (Gnorm) GluA2 wild type + γ2 ([2]; -100 mV): 1.02 and 1.00 and 0.95
- Normalized current (Inorm) GluA2 wild type + γ2 ([2]; -100 mV): -1.00
- h, voltage dependency of block onset ([2]; GluA2(Q) wt + γ2): −16.7 ± 1.9 mV
- k, voltage dependency of block relief ([2]; GluA2(Q) wt + γ2): 18.2 ± 3.0 mV
- Kd ([2]; GluA2(Q) wt + γ2, 30 µM internal Spm, 10 mM glutamate, read-out: Kd(0mV)): 38.4 ± 11.9 µM
- h ([2]; fit of Gnorm vs voltage, GluA2 wild type + γ2, single recordings): -13.23
- Normalized conductance (Gnorm) GluA2 wild type ([3]; 10 mV): 0.13 and 0.07 and 0.09 and 0.12 and 0.14 and 0.11
- Normalized current (Inorm) GluA2 wild type ([3]; 30 mV): 0.0172
- Normalized current (Inorm) GluA2 wild type ([3]; 70 mV): 0.19 and 0.25 and 0.20 and 0.28 and 0.32 and 0.36 and 0.27
- Normalized conductance (Gnorm) GluA2 wild type ([3]; 80 mV): 0.39 and 0.55 and 0.61 and 0.72 and 0.70 and 0.59
- Normalized current (Inorm) GluA2 wild type ([3]; 80 mV): 0.31 and 0.42 and 0.39 and 0.43 and 0.54 and 0.52 and 0.44
- Normalized conductance (Gnorm) GluA2 wild type ([3]; 90 mV): 0.49 and 0.69 and 0.70 and 0.77 and 0.89 and 0.81 and 0.72
- Normalized current (Inorm) GluA2 wild type ([3]; 90 mV): 0.44 and 0.59 and 0.56 and 0.62 and 0.76 and 0.68 and 0.61
- Normalized conductance (Gnorm) GluA2 wild type ([3]; 100 mV): 0.66 and 0.80 and 0.82 and 0.89 and 0.94
- Normalized current (Inorm) GluA2 wild type ([3]; 100 mV): 0.66 and 0.77 and 0.74 and 0.80 and 0.89
- Normalized current (Inorm) GluA2 wild type ([3]; -10 mV): -0.0326
- Normalized current (Inorm) GluA2 wild type ([3]; -20 mV): -0.0532
- Normalized conductance (Gnorm) GluA2 wild type ([3]; -40 mV): 0.53 and 0.50 and 0.49 and 0.66 and 0.63 and 0.73 and 0.59
- Normalized conductance (Gnorm) GluA2 wild type ([3]; -50 mV): 0.65 and 0.63 and 0.62 and 0.80 and 0.70 and 0.82
- Normalized conductance (Gnorm) GluA2 wild type ([3]; -60 mV): 0.75 and 0.73 and 0.72 and 0.89 and 0.80 and 0.79
- Normalized conductance (Gnorm) GluA2 wild type ([3]; -70 mV): 0.83 and 0.76 and 0.82 and 0.93 and 0.85 and 0.92
- Normalized conductance (Gnorm) GluA2 wild type ([3]; -80 mV): 0.88 and 0.91 and 0.95 and 0.89
- Normalized conductance (Gnorm) GluA2 wild type ([3]; -90 mV): 0.90 and 0.93 and 0.98 and 0.99 and 0.95
- Normalized conductance (Gnorm) GluA2 wild type ([3]; -100 mV): 0.96 and 0.99 and 0.97 and 1.03 and 1.00
- Normalized current (Inorm) GluA2 wild type ([3]; -100 mV): -1.00
- h, voltage dependency of block onset ([3]; GluA2(Q) wt): −18.5 ± 0.7 mV
- k, voltage dependency of block relief ([3]; GluA2(Q) wt): 14.3 ± 0.6 mV
- Kd ([3]; GluA2(Q) wt, 30 µM internal Spm, 10 mM glutamate, read-out: Kd(0mV)): 5.4 ± 2.6 µM
- k ([3]; fit of Gnorm vs voltage, GluA2 wild type, single recordings): 16.05 and 14.65 and 13.61 and 14.56 and 11.91 and 14.81
